Reference: patent publication US20200087248A1, “Fluoroallylamine Derivative And Use Thereof” (SICHUAN KELUN-BIOTECH BIOPHARMACEUTICAL CO., LTD., priority 2017, published 2020)
Where a name gives a salt, the structure may show the parent alone.

What was measured:
[1] = target: T1, VAP-1 in abdominal fat of mice (Mus musculus, UniProt O70423); assay: Inhibition of the enzymatic activity of VAP-1 ex-vivo, abdominal fat after oral dosing; format: in vivo, BALBc mice; details: 0.5 mg/kg oral, abdominal fat collected after six hours; for inhibition at 0.5 mg/kg: mouse, read-out: Inhibition rate (%) against the enzymatic activity of VAP-1 (ex-vivo)
T1 construct: abdominal fat was collected and homogenized; from tissue; host or cells: abdominal fat of BALBc mice (homogenate supernatant)
T1 sequence (O70423 1-765): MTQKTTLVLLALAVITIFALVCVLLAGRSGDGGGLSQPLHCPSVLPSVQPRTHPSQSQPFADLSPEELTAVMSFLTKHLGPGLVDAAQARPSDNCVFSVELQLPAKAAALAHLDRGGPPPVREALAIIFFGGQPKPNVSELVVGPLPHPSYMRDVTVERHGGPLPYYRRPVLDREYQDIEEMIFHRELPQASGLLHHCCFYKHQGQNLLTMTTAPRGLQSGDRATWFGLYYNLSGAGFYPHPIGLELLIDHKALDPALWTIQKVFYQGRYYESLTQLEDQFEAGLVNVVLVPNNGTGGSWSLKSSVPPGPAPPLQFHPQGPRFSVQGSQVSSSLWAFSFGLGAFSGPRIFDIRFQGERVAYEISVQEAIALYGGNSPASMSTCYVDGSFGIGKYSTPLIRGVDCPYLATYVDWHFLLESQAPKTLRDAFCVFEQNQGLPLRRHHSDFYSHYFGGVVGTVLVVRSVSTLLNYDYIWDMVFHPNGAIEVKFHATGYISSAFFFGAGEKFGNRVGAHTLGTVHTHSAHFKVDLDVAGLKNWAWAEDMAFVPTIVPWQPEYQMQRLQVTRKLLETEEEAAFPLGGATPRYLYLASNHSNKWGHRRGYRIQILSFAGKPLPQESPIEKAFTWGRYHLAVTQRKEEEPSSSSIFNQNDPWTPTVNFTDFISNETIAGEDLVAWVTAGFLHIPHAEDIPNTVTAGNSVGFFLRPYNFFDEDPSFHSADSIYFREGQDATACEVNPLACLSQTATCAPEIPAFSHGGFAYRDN
Protocol: Inhibition Experiment Against the Enzymatic Activity (ex-vivo)
Tissue homogenate buffer solution (20 mM HEPES, pH 7.2, 1 mM EDTA, 250 mM sucrose, PMSF 0.2 mM)
Reaction buffer solution: 50 mM PBS, pH 7.4
Test kit: Amplex® Red Monoamine Oxidase Assay, Manufacturer: ThermoFisher
BALBc mice were administrated orally with different doses of the test compound, and the vehicle group was used as the control group. After six hours, abdominal fat was collected and homogenized at 1:20 (w/v) with the pre-cooled homogenate buffer solution, and thereafter, the homogenate was centrifuged at 10,000 g and 4° C. or 10 minutes, the supernatant was collected and stored at -80° C. for further use.
A test sample was diluted with the reaction buffer solution and successively added with the inhibition solution A: 1 μM Clorgyline+1 μM pargylin, to inhibit the activities of MAO-A and MAO-B, and the inhibition solution B: 1 μM Clorgyline+1 μM Pargylin+1 μM Mofegiline as the blank control, and after being incubated at room temperature for 20 min, 500 μM benzylamine hydrochloride, 1 U/mL HRP and 200 μM Amplex Red reagent were added to start the reaction. By referring to the method in “Experiment of inhibiting the enzymatic activity of VAP-1”, relative activity of each dose group was calculated, wherein the ratio of the fluorescent signal to reaction time in the linear range is the reaction rate, and the vehicle group is the positive control, thereby to study the inhibition of the compound against the enzymatic activity of VAP-1 in abdominal fat of mice.

CYP1A2 = target: T2, CYP1A2 (Homo sapiens, UniProt P05177); assay: Inhibition of cytochrome P450 isoenzyme CYP1A2 (P450-Glo); format: in vitro ADME; details: estimated from inhibition rates at 10 μM and 1 μM
T2 construct: purchased Promega
T2 sequence (P05177 1-516): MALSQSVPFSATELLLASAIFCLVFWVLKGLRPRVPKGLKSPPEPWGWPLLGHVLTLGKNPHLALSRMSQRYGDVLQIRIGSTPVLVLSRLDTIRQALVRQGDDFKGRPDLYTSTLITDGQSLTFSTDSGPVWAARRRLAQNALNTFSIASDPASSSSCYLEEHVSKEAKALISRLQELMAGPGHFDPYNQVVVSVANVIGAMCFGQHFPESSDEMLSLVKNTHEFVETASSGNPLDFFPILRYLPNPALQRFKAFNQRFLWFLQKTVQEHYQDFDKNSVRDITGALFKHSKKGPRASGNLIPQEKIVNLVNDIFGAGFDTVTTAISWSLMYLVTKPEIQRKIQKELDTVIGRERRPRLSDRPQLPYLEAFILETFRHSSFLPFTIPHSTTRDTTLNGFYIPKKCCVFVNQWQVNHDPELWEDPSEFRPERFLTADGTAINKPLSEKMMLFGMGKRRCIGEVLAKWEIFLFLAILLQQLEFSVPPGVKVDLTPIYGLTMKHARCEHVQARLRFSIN
Protocol: (§1) Inhibition Experiment Against Cytochrome P450 Isoenzyme (CYP)
P450-Glo™ CYP1A2 Screening System, manufacturer: Promega
(§2) According to the specification of the test kit, 10 nM CYP1A2, 5 nMCYP2D6, and 1 nM CYP3A4 proteins and corresponding substrates (100 μM, 30 μM, 3 μM) as well as the compound were pre-incubating respectively for 10 min, G6PDH-G6P-NADP regeneration system was added to start the reaction, a test reagent was added later, after 20 min, the chemical luminescent signals were detectted.
(§3) Percent inhibition rate (%)=(1-(signal of each compound concentration group-signal of the blank group)/(signal of the negative control-signal of the blank group))*100.
(§4) According to the inhibition rates of the compound at different concentrations against P450 enzyme, the half inhibition concentration (IC5o) or range was estimated.
(§5) IC50=X*(1-percent inhibition rate (%))/percent inhibition rate (%), wherein, X is the test concentration of the compound.
(§6) According to the above method, the inhibition of the compound at the concentrations 10 μM, and 1 μM, against three CYPs were measured, and the results were shown in the following Tables 10-12: […]

CYP3A4 = target: T3, CYP3A4 (Homo sapiens, UniProt P08684); assay: Inhibition of cytochrome P450 isoenzyme CYP3A4 (P450-Glo); format: in vitro ADME; details: estimated from inhibition rates at 10 μM and 1 μM; for IC50: read-out: IC50, inhibition against CYP3A4
T3 construct: purchased Promega
T3 sequence (P08684 whole entry): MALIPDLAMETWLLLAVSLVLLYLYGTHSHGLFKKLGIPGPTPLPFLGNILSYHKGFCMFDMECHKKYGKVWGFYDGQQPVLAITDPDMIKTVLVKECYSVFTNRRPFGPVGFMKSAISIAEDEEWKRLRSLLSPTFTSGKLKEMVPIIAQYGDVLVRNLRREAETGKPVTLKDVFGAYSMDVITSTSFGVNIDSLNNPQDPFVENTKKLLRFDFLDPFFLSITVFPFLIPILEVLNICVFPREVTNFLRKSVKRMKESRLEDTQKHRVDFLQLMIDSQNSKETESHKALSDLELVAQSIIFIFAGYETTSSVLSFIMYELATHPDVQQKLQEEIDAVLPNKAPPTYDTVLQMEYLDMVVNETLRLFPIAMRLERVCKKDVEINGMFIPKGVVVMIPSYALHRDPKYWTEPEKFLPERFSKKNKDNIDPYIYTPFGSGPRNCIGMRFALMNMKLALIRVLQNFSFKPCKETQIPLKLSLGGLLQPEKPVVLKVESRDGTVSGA
Protocol: as §1
P450-Glo™ CYP3A4 Screening System, manufacturer: Promega
as §2, §3, §4, §5, §6

CYP2D6 = target: T4, CYP2D6 (Homo sapiens, UniProt P10635); assay: Inhibition of cytochrome P450 isoenzyme CYP2D6 (P450-Glo); format: in vitro ADME; details: estimated from inhibition rates at 10 μM and 1 μM; for IC50: read-out: IC50, inhibition against CYP2D6
T4 construct: purchased Promega
T4 sequence (P10635 whole entry): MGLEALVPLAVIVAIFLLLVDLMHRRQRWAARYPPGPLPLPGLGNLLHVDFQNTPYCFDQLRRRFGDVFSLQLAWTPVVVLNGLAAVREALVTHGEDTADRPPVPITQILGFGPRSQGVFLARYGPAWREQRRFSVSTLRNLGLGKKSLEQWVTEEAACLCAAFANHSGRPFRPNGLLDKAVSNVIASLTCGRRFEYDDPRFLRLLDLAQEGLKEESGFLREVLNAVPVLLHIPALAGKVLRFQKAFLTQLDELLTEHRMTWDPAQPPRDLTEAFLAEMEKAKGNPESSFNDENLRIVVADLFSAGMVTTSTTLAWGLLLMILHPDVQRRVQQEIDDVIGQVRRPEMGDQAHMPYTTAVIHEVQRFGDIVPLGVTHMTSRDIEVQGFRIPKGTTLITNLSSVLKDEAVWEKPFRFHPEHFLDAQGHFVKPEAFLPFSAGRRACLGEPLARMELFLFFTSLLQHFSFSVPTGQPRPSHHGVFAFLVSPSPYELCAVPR
Protocol: as §1
P450-Glo™ CYP2D6 Screening System, manufacturer: Promega
as §2, §3, §4, §5, §6

Row | Molecule | inhibition at 0.5 mg/kg [1] | IC50, inhibition against CYP1A2 (CYP1A2) | IC50 (CYP1A2; read-out: IC50, inhibition against CYP1A2) | IC50, inhibition against CYP3A4 (CYP3A4) | IC50 (CYP3A4) | IC50, inhibition against CYP2D6 (CYP2D6) | IC50 (CYP2D6) | Inhibition rate (%) against the enzymatic activity of VAP-1 (ex-vivo) [1]
1 | (E)-6-((2-(methylamino)-3-fluoroallyl)oxy)-3,3-dimethyl-3,4-dihydro-isoquinolin-1(2H)-one trifluoroacetate [TM38-E] |  | do not have significant inhibitions | 6.73 ± 0.39 µM | do not have significant inhibitions | > 10 µM | do not have significant inhibitions | > 10 µM | 92.7 ± 3.0%
2 | (E)-6-((2-(methylamino)-3-fluoroallyl)oxy)-2-methyl-3,4-dihydroisoquinolin-1(2H)-one trifluoroacetate [TM66-E] |  | do not have significant inhibitions |  | do not have significant inhibitions | > 10 µM | do not have significant inhibitions | > 10 µM | 92.3 ± 1.9%
3 | NC/C(=C\F)COc1ccc(C(=O)Nc2ccccc2)cc1 [TM1-E, (E)-N-phenyl-4-((2-aminomethyl-3-fluoroallyl)oxy)-benzamide trifluoroacetate] | 96.7 ± 2.2% |  |  |  |  |  |  | 

Now from value to molecule, other results behind:

Row | inhibition at 0.5 mg/kg [1] | Molecule | IC50, inhibition against CYP1A2 (CYP1A2) | IC50 (CYP1A2; read-out: IC50, inhibition against CYP1A2) | IC50, inhibition against CYP3A4 (CYP3A4) | IC50 (CYP3A4) | IC50, inhibition against CYP2D6 (CYP2D6) | IC50 (CYP2D6) | Inhibition rate (%) against the enzymatic activity of VAP-1 (ex-vivo) [1]
4 | 86.6 ± 5.5% | NC/C(=C/F)COc1ccc2c(c1)CCNC2=O [TM26-Z, (Z)-6-((2-aminomethyl-3-fluoroallyl)oxy)-3,4-dihydroisoquinolin-1(2H)-one trifluoroacetate] |  |  |  |  |  |  | 
5 | 93 ± 2.7% | NC/C(=C\F)COc1ccc(-c2ncccn2)cc1 [TM39-E, (E)-2-(4-(2-pyrimidyl)phenoxymethyl)-3-fluoroallylamine trifluoroacetate] |  |  |  |  |  |  | 
